From paper PMC7190724, “Improved GPCR ligands from nanobody tethering” (Nature Communications, 2020)
Like-named read-outs stand apart in the source and are kept apart here. Where a SMILES comes first, the peptide text is derived from it. [ ]: non-standard residue; d: D form. Aib = CC(C)(N)C(=O)O

Assays:
PTHR1GFP [1] = target: T1, PTHR1GFP (Homo sapiens, UniProt Q03431); experiment: Flow cytometry binding of VHH-Alexafluor647 to HEK293 expressing PTHR1GFP; conditions: 100 nM VHH-Alexafluor647, on ice
T1 sequence (Q03431 27-593): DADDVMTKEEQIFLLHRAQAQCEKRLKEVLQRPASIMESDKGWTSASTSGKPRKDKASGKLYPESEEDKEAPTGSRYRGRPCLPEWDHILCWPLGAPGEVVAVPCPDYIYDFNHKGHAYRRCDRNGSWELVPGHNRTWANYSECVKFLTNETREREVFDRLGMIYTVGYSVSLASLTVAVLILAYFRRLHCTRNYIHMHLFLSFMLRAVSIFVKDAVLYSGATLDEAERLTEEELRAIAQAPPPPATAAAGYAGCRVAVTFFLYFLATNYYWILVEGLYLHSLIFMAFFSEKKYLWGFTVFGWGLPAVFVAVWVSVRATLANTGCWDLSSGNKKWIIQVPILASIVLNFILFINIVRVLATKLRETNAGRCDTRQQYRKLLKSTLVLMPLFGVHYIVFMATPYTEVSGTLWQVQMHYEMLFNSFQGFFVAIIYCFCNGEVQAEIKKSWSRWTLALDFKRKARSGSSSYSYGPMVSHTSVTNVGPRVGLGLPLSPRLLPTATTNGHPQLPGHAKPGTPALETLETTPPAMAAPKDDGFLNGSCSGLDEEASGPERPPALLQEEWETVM
Method: (§1) Suspensions of cells in PBS were stained for 1 h on ice in the presence of indicated concentrations of VHH probes functionalized with Alexafluor647. Cells were pelleted by centrifugation and washed with PBS prior to analysis by flow cytometry (BD Accuri C6). To select intact cells gating was performed on forward scatter/side scatter profiles for analysis (see Supplementary Fig. 4 for an example of the gating strategy). Data were analyzed using FlowJo version 7.6. The median fluorescent intensity (MFI) of stained cells was used to generate VHH binding dose response curves (Supplementary Fig. 4).
Supplementary Figure 1. […] HEK293 cell lines in suspension were incubated on ice with 100 nM VHH sortagged with Alexafluor647, pelleted by centrifugation, washed and analyzed. […]
PTHR1GFP. This weak staining is likely related to the inability of VHHGFP to tightly bind the pH-sensitive GFP variant known as pHluorin2 engrafted into the receptor(ref. 19, main text). c) HEK293 cells stably expressing PTHR1-GFP were treated with varied doses of the indicated peptides or conjugates and activation was assessed by measuring luminescence from a cAMP-activated luciferase variant. […]
Supplementary Figure 4. […] Cells were centrifuged, washed, and analyzed by flow cytometry via gating of intact cells (live gate) based on forward scatter/side scatter profiles (panel a). […]

PTHR1YFPΔECD [2] = target: T2, PTHR1YFPΔECD (Homo sapiens, UniProt Q03431); experiment: Flow cytometry binding of VHH-Alexafluor647 to HEK293 expressing PTHR1YFPΔECD
T2 construct: expressed in transfected cells; host or cells: HEK293 (clone GD5Y) with GloSensor cAMP reporter
T2 sequence (Q03431 with tags, fused parts or gaps limits assumed): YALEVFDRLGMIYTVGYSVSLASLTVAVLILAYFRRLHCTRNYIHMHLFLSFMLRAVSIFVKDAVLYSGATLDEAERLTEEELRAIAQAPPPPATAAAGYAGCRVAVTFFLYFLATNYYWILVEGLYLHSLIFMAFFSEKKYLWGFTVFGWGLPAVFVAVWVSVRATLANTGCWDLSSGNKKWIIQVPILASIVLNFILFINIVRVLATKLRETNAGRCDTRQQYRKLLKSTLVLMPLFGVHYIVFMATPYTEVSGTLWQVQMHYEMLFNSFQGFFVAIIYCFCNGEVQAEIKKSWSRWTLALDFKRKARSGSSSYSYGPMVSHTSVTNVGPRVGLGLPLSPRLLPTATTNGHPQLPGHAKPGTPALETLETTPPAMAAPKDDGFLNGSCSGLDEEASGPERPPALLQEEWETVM
Method: as §1
Supplementary Figure 4. Assessment of VHH binding to PTHR1 variants by flow cytometry. Cells dislodged from tissue culture plates using trypsinization were incubated with varied concentrations of VHHs sortagged with AlexaFluor647 on ice for 1 h. Cells were centrifuged, washed, and analyzed by flow cytometry via gating of intact cells (live gate) based on forward scatter/side scatter profiles (panel a). (b) Data points represent median fluorescent intensity values ( individual data points shown, n = 2 independent replicates per condition). Connecting curves are the result of fitting a sigmoidal dose - response model to the data points. Precise estimates for VHH PTHR binding cannot be provided since the […]
(1 picture or pasted object on this page, not shown here)

hPTHR1 = target: T3, hPTHR1 (Homo sapiens, UniProt Q03431); experiment: cAMP response (GloSensor luminescence), HEK293 stably expressing human PTHR1 (GP2.3); format: cell-based; conditions: peak GloSensor luminescence 12–16 min after ligand; mean ± SD, ≥3 independent experiments; highest conc. 100 nM conjugates, 10,000 nM peptides; read-out: EC50, cAMP induction
T3 construct: expressed in transfected cells; host or cells: HEK293 (clone GP2.3) with GloSensor cAMP reporter
T3 sequence (Q03431 27-593): T1 sequence (Q03431 27-593)
Method: (§2) A HEK293 cell line stably expressing β-Arrestin2-YFP (GBR24) was constructed similarly. PTHR1_6E was produced using the Q5 Site-directed mutagenesis kit (NEB) and used to prepare a stably transfected HEK293-derived cell line. Annotated sequence data for all PTHR1 constructs are found in Supplementary Fig. 19. Aligned sequences of VHHs used in this study are shown in Supplementary Fig. 20.
(§3) These assays were performed as previously described. […] Confluent monolayers of cells were pre-incubated with CO2 independent medium containing D-luciferin (0.5 mM) at 37 °C until a stable baseline level of luminescence was established (20 min). Varying concentrations of ligands were then added, and the time course of luminescence response was recorded using BioTek plate reader.
(§4) Data were processed using Microsoft Excel and GraphPad Prism 6. Data from cAMP dose–response assays were analyzed using a sigmoidal dose–response model with variable slope. Data sets were statistically compared by using Student’s t test (two-tailed) assuming unequal variances for the two sets.

hPTHR2 = target: T4, hPTHR2 (Homo sapiens, UniProt P49190); experiment: cAMP response (GloSensor luminescence), HEK293 stably expressing hPTHR2; format: cell-based; conditions: peak GloSensor luminescence; mean ± SD, n = 3-4; read-out: EC50, cAMP induction
T4 construct: expressed in transfected cells
T4 sequence (P49190 25-550): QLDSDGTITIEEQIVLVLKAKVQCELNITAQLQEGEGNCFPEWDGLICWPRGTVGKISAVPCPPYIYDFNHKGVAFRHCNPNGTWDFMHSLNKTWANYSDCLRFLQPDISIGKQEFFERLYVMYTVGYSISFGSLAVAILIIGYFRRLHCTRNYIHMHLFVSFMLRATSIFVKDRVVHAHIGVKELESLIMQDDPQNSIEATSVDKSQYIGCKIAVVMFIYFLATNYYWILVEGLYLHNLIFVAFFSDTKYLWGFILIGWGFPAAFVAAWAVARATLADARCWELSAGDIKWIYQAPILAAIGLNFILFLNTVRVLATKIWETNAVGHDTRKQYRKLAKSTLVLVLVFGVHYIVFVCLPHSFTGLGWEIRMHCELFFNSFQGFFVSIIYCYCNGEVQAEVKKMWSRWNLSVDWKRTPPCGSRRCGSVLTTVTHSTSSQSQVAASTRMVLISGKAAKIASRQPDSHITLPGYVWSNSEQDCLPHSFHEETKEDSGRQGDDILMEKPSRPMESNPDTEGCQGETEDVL
Method: (§5) These assays were performed as previously described. Briefly, HEK-293-derived cell lines that stably express the Glosensor cAMP reporter (Promega Corp.)[30] and PTHR1, a PTHR1 variant, or PTHR2 were seeded into white sided 96-well plates (50,000 cells/well) and grown to confluency. Confluent monolayers of cells were pre-incubated with CO2 independent medium containing D-luciferin (0.5 mM) at 37 °C until a stable baseline level of luminescence was established (20 min). Varying concentrations of ligands were then added, and the time course of luminescence response was recorded using BioTek plate reader. The maximal luminescence response (observed 12–16 min after ligand addition) was used to construct dose-response data sets (Table 1, Supplementary Fig. 6).
as §4

PTHR1GFP [3] = target: T1, PTHR1GFP; experiment: cAMP response (GloSensor luminescence), HEK293 stably expressing PTHR1GFP (GPG10); format: cell-based
Method: as §5, §4
Supplementary Figure 1. […]
GFP variant known as pHluorin2 engrafted into the receptor(ref. 19, main text). c) HEK293 cells stably expressing PTHR1-GFP were treated with varied doses of the indicated peptides or conjugates and activation was assessed by measuring luminescence from a cAMP-activated luciferase variant. Values listed represent EC50 values (mean ± SD). Each value comes from ≥ 3 independent experiments. Further details, including the number of replicates for each measurement and the normalized maximal responses induced, are reported in Supplementary Table 1. […]
than 5% of the maximal response induced for that cell line.
Peptide or conjugate PTHR1GFP

PTHR1YFPΔECD [4] = target: T2, PTHR1YFPΔECD; experiment: cAMP response (GloSensor luminescence), HEK293 stably expressing PTHR1YFPΔECD (GD5Y); format: cell-based; conditions: peak GloSensor luminescence; mean ± SD, ≥3 independent experiments; read-out: EC50, cAMP induction
Method: as §2, §3, §4

PTHR1_6E = target: T5, PTHR1_6E (Homo sapiens, UniProt Q03431); experiment: cAMP response (GloSensor luminescence), HEK293 stably expressing PTHR1_6E; format: cell-based; conditions: peak GloSensor luminescence; mean ± SD, ≥3 independent experiments; read-out: EC50, cAMP induction
T5 sequence (Q03431 106-593 limits assumed): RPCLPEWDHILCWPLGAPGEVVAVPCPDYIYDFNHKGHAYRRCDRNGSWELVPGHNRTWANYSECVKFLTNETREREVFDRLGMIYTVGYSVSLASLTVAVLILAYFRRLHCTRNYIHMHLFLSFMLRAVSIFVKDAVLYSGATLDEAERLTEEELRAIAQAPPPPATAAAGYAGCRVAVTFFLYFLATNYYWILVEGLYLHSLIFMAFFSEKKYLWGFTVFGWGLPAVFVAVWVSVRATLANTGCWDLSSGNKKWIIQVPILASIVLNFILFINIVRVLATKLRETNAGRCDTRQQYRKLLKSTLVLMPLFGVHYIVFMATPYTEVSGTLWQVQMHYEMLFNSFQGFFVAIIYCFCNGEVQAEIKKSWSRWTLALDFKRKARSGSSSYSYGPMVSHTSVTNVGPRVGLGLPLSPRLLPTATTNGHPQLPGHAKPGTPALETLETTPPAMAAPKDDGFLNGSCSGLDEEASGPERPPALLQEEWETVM
Method: as §2, §3, §4

| Molecule | staining of cells (PTHR1GFP [1]) | staining of cells (PTHR1YFPΔECD [2]; 100 nM VHH-Alexafluor647, on ice) | half-maximal staining concentration (PTHR1YFPΔECD [2]; flow cytometry MFI, VHH-Alexafluor647, 1 h on ice) | EC50 (hPTHR1) | EC50 (hPTHR2) | EC50 (PTHR1GFP [3]) | EC50 (PTHR1YFPΔECD [4]) | EC50 (PTHR1_6E) | EC50 (PTHR1GFP [3]; peak GloSensor luminescence, mean ± SD, ≥3 independent experiments, read-out: EC50, cAMP induction) |
| --- | --- | --- | --- | --- | --- | --- | --- | --- | --- |
| VHHGFP: nanobody recognizing green or yellow fluorescent proteins (named VHH-enhancer) | only weakly stained | stained | < 10 nM | – | – | – | – | – | – |
| CC[C@H](C)[C@H](NC(=O)[C@H](CCC(=O)O)NC(=O)C(C)(C)NC(=O)[C@@H](NC(=O)[C@H](C)N)C(C)C)C(=O)N[C@@H](CCC(N)=O)C(=O)N[C@@H](CC(C)C)C(=O)N[C@@H](CCSC)C(=O)N[C@@H](Cc1c[nH]cn1)C(=O)N[C@@H](CCC(N)=O)C(=O)N[C@@H](CCCNC(=N)N)C(=O)N[C@@H](C)C(=O)N[C@@H](CCCCN)C(=O)N[C@@H](Cc1c[nH]c2ccccc12)C(=O)N[C@@H](CS)C(N)=O [PTH(1-14)] (H-AV[Aib]EIQLMHQRAKWC-NH2) | – | – | – | 4.3 nM | 924 ± 328 nM | 2.3 ± 1.2 nM | 1.1 nM | 3.4 nM | – |
| CC[C@H](C)[C@H](NC(=O)[C@H](CCC(=O)O)NC(=O)C(C)(C)NC(=O)[C@@H](NC(=O)[C@H](C)N)C(C)C)C(=O)N[C@@H](CCC(N)=O)C(=O)N[C@@H](CC(C)C)C(=O)N[C@@H](CCSC)C(=O)N[C@@H](Cc1c[nH]cn1)C(=O)N[C@@H](CCC(N)=O)C(=O)N[C@@H](CS)C(N)=O [PTH(1-10)] (H-AV[Aib]EIQLMHQC-NH2) | – | – | – | 3120 nM | – | – | 3840 nM | 5080 nM | 2550 ± 653 nM |
